Measured values published in US20260132132A1, “3A,4,5,6-TETRAHYDRO-1 H-PYRAZOLO[3,4-C]PYRIDIN-7(7AH)-ONE DERIVATIVES AS FACTOR XIIA INHIBITORS” (KALVISTA PHARMACEUTICALS LIMITED, priority 2022, published 2026).

Legend:
[1] = molecular target: T1, Human Factor XIIa (hFXIIa) (Homo sapiens, UniProt P00748); experiment: Determination of Human Factor XIIa (hFXIIa) inhibition, fluorogenic substrate IC50 assay; assay type: biochemical; details: fluorogenic substrate H-DPro-Phe-Arg-AFC at Km, 25° C., read-out: Human FXIIa IC50
T1 construct: purchased Enzyme Research Laboratories
T1 sequence (P00748 373-615 limits assumed): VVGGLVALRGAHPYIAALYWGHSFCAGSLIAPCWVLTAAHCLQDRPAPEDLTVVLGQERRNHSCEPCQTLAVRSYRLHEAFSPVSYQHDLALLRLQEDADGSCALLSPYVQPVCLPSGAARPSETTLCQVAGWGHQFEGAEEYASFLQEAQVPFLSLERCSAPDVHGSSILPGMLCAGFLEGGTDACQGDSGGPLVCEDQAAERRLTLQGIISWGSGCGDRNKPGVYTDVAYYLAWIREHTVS
T1 sequence (P00748 20-372 partner limits assumed): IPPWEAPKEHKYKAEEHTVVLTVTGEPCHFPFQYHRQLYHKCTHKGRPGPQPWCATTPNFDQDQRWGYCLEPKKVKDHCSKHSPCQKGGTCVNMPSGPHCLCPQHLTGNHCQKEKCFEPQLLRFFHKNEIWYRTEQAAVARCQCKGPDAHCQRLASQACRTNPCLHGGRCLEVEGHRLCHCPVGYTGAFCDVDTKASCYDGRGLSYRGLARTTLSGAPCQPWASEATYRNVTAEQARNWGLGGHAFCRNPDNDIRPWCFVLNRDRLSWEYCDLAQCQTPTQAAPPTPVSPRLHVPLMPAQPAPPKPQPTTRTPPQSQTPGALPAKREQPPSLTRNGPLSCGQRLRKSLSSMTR
Protocol: Determination of Human Factor XIIa (hFXIIa) inhibition
The Km for the cleavage of the substrate by hFXIIa was determined by standard transformation of the Michaelis-Menten equation, with subsequent inhibition assays performed at substrate Km concentration.

FXa = FXa (Homo sapiens, UniProt P00742); experiment: Related protease inhibition: FXa, fluorogenic substrate; assay type: biochemical; details: fluorogenic substrate at Km, 25° C.; H1-H3 = % activity at 40 μM
Chain of FXa (P00742 235-488 limits assumed): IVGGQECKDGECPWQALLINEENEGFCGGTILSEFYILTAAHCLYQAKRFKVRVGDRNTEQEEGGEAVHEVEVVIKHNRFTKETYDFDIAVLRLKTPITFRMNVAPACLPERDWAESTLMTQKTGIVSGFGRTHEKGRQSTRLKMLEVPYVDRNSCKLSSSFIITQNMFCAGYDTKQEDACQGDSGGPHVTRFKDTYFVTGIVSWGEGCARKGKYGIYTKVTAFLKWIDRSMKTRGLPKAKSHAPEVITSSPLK
Chain of FXa (P00742 41-179 partner limits assumed): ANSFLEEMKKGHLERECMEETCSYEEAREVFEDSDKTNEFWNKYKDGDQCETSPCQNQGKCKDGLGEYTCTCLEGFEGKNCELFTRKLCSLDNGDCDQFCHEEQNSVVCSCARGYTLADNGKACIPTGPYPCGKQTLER
Protocol: Human serine protease enzyme Plasma Kallikrein, KLK1, FXa, Plasmin, Thrombin and Trypsin were assayed for enzymatic activity using an appropriate fluorogenic substrate at Km concentration, FXIa at fixed substrate concentration of 100 μM and various concentrations of the test compound.

In the case of CCCN1CCc2ccc(N3CCc4c(C(=O)NCC5CC5)nn(-c5cccc(Cl)c5)c4C3=O)cc2C1=O [Example 1211, 1-(3-chlorophenyl)-N-(cyclopropylmethyl)-7-oxo-6-(1-oxo-2-propyl-1,2,3,4-tetrahydroisoquinolin-7-yl)-4,5,6,7-tetrahydro-1H-pyrazolo[3,4-c]pyridine-3-carboxamide], the IC50 [1] is reported as 300 to 1000 nM and the IC50 (FXa) is reported as > 40000 nM.
For Cc1ccncc1CNC(=O)c1nn(-c2cccc(Cl)c2)c2c1CCN(c1ccc3ccn(C)c(=O)c3c1)C2=O [Example 1212, 1-(3-chlorophenyl)-6-(2-methyl-1-oxo-1,2-dihydroisoquinolin-7-yl)-N-((4-methylpyridin-3-yl)methyl)-7-oxo-4,5,6,7-tetrahydro-1H-pyrazolo[3,4-c]pyridine-3-carboxamide], the IC50 [1] was 1000 to 3000 nM and the IC50 (FXa) was > 40000 nM.
For COc1cncc(CNC(=O)c2nn(-c3cccc(Cl)c3)c3c2CCN(c2ccc4c(c2)C(=O)N(C)CC4)C3=O)c1 [Example 1213, 1-(3-chlorophenyl)-N-((5-methoxypyridin-3-yl)methyl)-6-(2-methyl-1-oxo-1,2,3,4-tetrahydroisoquinolin-7-yl)-7-oxo-4,5,6,7-tetrahydro-1H-pyrazolo[3,4-c]pyridine-3-carboxamide], the IC50 [1] was 100 to 300 nM and the IC50 (FXa) was 3000 to 10000 nM.
In the case of O=C(NCC1CC1)c1nn(-c2cccc(Cl)c2)c2c1CCN(c1ccc3c(c1)C(=O)N(CCO)CC3)C2=O [Example 1216, 1-(3-chlorophenyl)-N-(cyclopropylmethyl)-6-(2-(2-hydroxyethyl)-1-oxo-1,2,3,4-tetrahydroisoquinolin-7-yl)-7-oxo-4,5,6,7-tetrahydro-1H-pyrazolo[3,4-c]pyridine-3-carboxamide], the IC50 [1] is reported as 100 to 300 nM and the IC50 (FXa) is reported as > 40000 nM.
In the case of Cc1cn(C)nc1CNC(=O)c1nn(-c2cccc(Cl)c2)c2c1CCN(c1ccc3c(c1)C(=O)N(CCO)CC3)C2=O [Example 1217, 1-(3-Chlorophenyl)-N-[(1,4-dimethylpyrazol-3-yl)methyl]-6-[2-(2-hydroxyethyl)-1-oxo-3,4-dihydroisoquinolin-7-yl]-7-oxo-4,5-dihydropyrazolo[3,4-c]pyridine-3-carboxamide], the IC50 [1] is reported as 10 to 100 nM and the IC50 (FXa) is reported as 10000 to 40000 nM.
In the case of O=C(NCc1ccnnc1)c1nn(-c2cccc(Cl)c2)c2c1CCN(c1ccc3c(c1)CN(CCO)CC3)C2=O [Example 1218, 1-(3-chlorophenyl)-6-(2-(2-hydroxyethyl)-1,2,3,4-tetrahydroisoquinolin-7-yl)-7-oxo-N-(pyridazin-4-ylmethyl)-4,5,6,7-tetrahydro-1H-pyrazolo[3,4-c]pyridine-3-carboxamide], the IC50 [1] is reported as 100 to 300 nM and the IC50 (FXa) is reported as > 40000 nM.
In the case of O=C(NCc1cocn1)c1nn(-c2cccc(Cl)c2)c2c1CCN(c1ccc3c(c1)CN(CCO)CC3)C2=O [Example 1223, 1-(3-chlorophenyl)-6-(2-(2-hydroxyethyl)-1,2,3,4-tetrahydroisoquinolin-7-yl)-N-(oxazol-4-ylmethyl)-7-oxo-4,5,6,7-tetrahydro-1H-pyrazolo[3,4-c]pyridine-3-carboxamide], the IC50 [1] is reported as 100 to 300 nM and the IC50 (FXa) is reported as 10000 to 40000 nM.
With CCN1CCc2ccc(N3CCc4c(C(=O)NCc5nn(C)cc5C)nn(-c5cccc(Cl)c5)c4C3=O)cc2C1=O [Example 1224, 1-(3-chlorophenyl)-N-((1,4-dimethyl-1H-pyrazol-3-yl)methyl)-6-(2-ethyl-1-oxo-1,2,3,4-tetrahydroisoquinolin-7-yl)-7-oxo-4,5,6,7-tetrahydro-1H-pyrazolo[3,4-c]pyridine-3-carboxamide] the IC50 [1] was 100 to 300 nM and the IC50 (FXa) was > 40000 nM.
With Cc1cn(C)nc1CNC(=O)c1nn(-c2cccc(Cl)c2)c2c1CCN(c1ccc3c(c1)C(=O)N(C)CC3)C2=O [Example 1225, 1-(3-chlorophenyl)-N-((1,4-dimethyl-1H-pyrazol-3-yl)methyl)-6-(2-methyl-1-oxo-1,2,3,4-tetrahydroisoquinolin-7-yl)-7-oxo-4,5,6,7-tetrahydro-1H-pyrazolo[3,4-c]pyridine-3-carboxamide] the IC50 [1] was 100 to 300 nM and the IC50 (FXa) was 10000 to 40000 nM.
For COc1cc(N2CCc3c(C(=O)NCC4CC4)nn(-c4cccc(Cl)c4)c3C2=O)cc2c1CCN(CCO)C2 [Example 1226, 1-(3-chlorophenyl)-N-(cyclopropylmethyl)-6-(2-(2-hydroxyethyl)-5-methoxy-1,2,3,4-tetrahydroisoquinolin-7-yl)-7-oxo-4,5,6,7-tetrahydro-1H-pyrazolo[3,4-c]pyridine-3-carboxamide], the IC50 [1] was 100 to 300 nM and the IC50 (FXa) was > 40000 nM.
Work on Cc1cc(CNC(=O)c2nn(-c3cccc(Cl)c3)c3c2CCN(c2cc4c(nn2)CCN(CCO)C4)C3=O)nn1C [Example 1227, 1-(3-chlorophenyl)-N-((1,5-dimethyl-1H-pyrazol-3-yl)methyl)-6-(6-(2-hydroxyethyl)-5,6,7,8-tetrahydropyrido[4,3-c]pyridazin-3-yl)-7-oxo-4,5,6,7-tetrahydro-1H-pyrazolo[3,4-c]pyridine-3-carboxamide] yielded an IC50 [1] of 100 to 300 nM and an IC50 (FXa) of 10000 to 40000 nM.
With COc1cccnc1CNC(=O)c1nn(-c2cccc(Cl)c2)c2c1CCN(c1cc3c(nn1)CCN(CCO)C3)C2=O [Example 1229, 1-(3-chlorophenyl)-6-(6-(2-hydroxyethyl)-5,6,7,8-tetrahydropyrido[4,3-c]pyridazin-3-yl)-N-((3-methoxypyridin-2-yl)methyl)-7-oxo-4,5,6,7-tetrahydro-1H-pyrazolo[3,4-c]pyridine-3-carboxamide] the IC50 [1] was 100 to 300 nM and the IC50 (FXa) was 10000 to 40000 nM.
With COc1ccnc(CNC(=O)c2nn(-c3cccc(Cl)c3)c3c2CCN(c2ccc4c(c2)CN(CCO)CC4)C3=O)c1 [Example 1230, 1-(3-chlorophenyl)-6-(2-(2-hydroxyethyl)-1,2,3,4-tetrahydroisoquinolin-7-yl)-N-((4-methoxypyridin-2-yl)methyl)-7-oxo-4,5,6,7-tetrahydro-1H-pyrazolo[3,4-c]pyridine-3-carboxamide] the IC50 [1] was 10 to 100 nM and the IC50 (FXa) was 10000 to 40000 nM.
With CN1CCc2ccc(N3CCc4c(C(=O)NCc5cc(C6CC6)n[nH]5)nn(-c5cccc(Cl)c5)c4C3=O)cc2C1=O [Example 1231, 1-(3-chlorophenyl)-N-((3-cyclopropyl-1H-pyrazol-5-yl)methyl)-6-(2-methyl-1-oxo-1,2,3,4-tetrahydroisoquinolin-7-yl)-7-oxo-4,5,6,7-tetrahydro-1H-pyrazolo[3,4-c]pyridine-3-carboxamide] the IC50 [1] was 100 to 300 nM and the IC50 (FXa) was > 40000 nM.
With O=C(O)c1nn(-c2cccc(Cl)c2)c2c1CCN(c1cccc(CN3CCCCC3)c1)C2=O [Example 1232, 1-(3-chlorophenyl)-7-oxo-6-(3-(piperidin-1-ylmethyl)phenyl)-4,5,6,7-tetrahydro-1H-pyrazolo[3,4-c]pyridine-3-carboxylic acid] the IC50 [1] was 1000 to 3000 nM and the IC50 (FXa) was > 40000 nM.
In the case of COc1cccnc1CNC(=O)c1nn(-c2cccc(Cl)c2)c2c1CCN(c1ccc3c(c1)C(=O)N(C)CC3)C2=O [Example 1233, 1-(3-chlorophenyl)-N-((3-methoxypyridin-2-yl)methyl)-6-(2-methyl-1-oxo-1,2,3,4-tetrahydroisoquinolin-7-yl)-7-oxo-4,5,6,7-tetrahydro-1H-pyrazolo[3,4-c]pyridine-3-carboxamide], the IC50 [1] is reported as 100 to 300 nM and the IC50 (FXa) is reported as > 40000 nM.
CCN1CCc2cc(F)c(N3CCc4c(C(=O)NCc5cc(C6CC6)n[nH]5)nn(-c5cccc(Cl)c5)c4C3=O)cc2C1 [Example 1234, 1-(3-chlorophenyl)-N-((3-cyclopropyl-1H-pyrazol-5-yl)methyl)-6-(2-ethyl-6-fluoro-1,2,3,4-tetrahydroisoquinolin-7-yl)-7-oxo-4,5,6,7-tetrahydro-1H-pyrazolo[3,4-c]pyridine-3-carboxamide] gave an IC50 [1] of 10 to 100 nM and an IC50 (FXa) of 3000 to 10000 nM.
For COc1ccc(CNC(=O)c2nn(-c3cccc(Cl)c3)c3c2CCN(c2ccc4c(c2)C(=O)N(C)CC4)C3=O)cn1 [Example 1235, 1-(3-chlorophenyl)-N-((6-methoxypyridin-3-yl)methyl)-6-(2-methyl-1-oxo-1,2,3,4-tetrahydroisoquinolin-7-yl)-7-oxo-4,5,6,7-tetrahydro-1H-pyrazolo[3,4-c]pyridine-3-carboxamide], the IC50 [1] was 100 to 300 nM and the IC50 (FXa) was > 40000 nM.
In the case of Cc1ccncc1CNC(=O)c1nn(-c2cccc(Cl)c2)c2c1CCN(c1ccc3c(c1)C(=O)N(CCO)CC3)C2=O [Example 1236, 1-(3-chlorophenyl)-6-(2-(2-hydroxyethyl)-1-oxo-1,2,3,4-tetrahydroisoquinolin-7-yl)-N-((4-methylpyridin-3-yl)methyl)-7-oxo-4,5,6,7-tetrahydro-1H-pyrazolo[3,4-c]pyridine-3-carboxamide], the IC50 [1] is reported as 10 to 100 nM and the IC50 (FXa) is reported as > 40000 nM.
In the case of O=C(NCc1cc(C2CC2)n[nH]1)c1nn(-c2cccc(Cl)c2)c2c1CCN(c1cccc(CN3CCCCC3)c1)C2=O [Example 1237, 1-(3-chlorophenyl)-N-((3-cyclopropyl-1H-pyrazol-5-yl)methyl)-7-oxo-6-(3-(piperidin-1-ylmethyl)phenyl)-4,5,6,7-tetrahydro-1H-pyrazolo[3,4-c]pyridine-3-carboxamide], the IC50 [1] is reported as 100 to 300 nM and the IC50 (FXa) is reported as > 40000 nM.
